Patent US20250195673A1 (priority 2020, published 2025)

Target: human NTSR1 (Homo sapiens, UniProt P30989)
Sequence (P30989 whole entry): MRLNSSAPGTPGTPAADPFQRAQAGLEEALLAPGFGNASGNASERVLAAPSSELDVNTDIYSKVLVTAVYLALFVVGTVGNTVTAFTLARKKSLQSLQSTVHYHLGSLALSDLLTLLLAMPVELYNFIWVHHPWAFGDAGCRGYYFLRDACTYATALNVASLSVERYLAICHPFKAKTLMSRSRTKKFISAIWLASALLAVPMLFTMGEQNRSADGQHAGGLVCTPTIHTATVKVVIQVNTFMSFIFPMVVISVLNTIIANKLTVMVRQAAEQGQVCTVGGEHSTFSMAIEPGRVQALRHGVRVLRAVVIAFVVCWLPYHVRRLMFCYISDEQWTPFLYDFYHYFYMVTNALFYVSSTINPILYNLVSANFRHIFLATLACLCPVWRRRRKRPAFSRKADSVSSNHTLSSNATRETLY

murine transferrin [mTf] was tested, and the IP1 accumulation was “not”.
